Measured values from article PMC6820371, “Terbium-161 for PSMA-targeted radionuclide therapy of prostate cancer” (European Journal of Nuclear Medicine and Molecular Imaging, 2019).
“Also recorded” adds a separate entry of the source. Read-outs that look alike come from different tables or passages of the source. Marks after values point to notes of the source that are not given here.

Experiments:
[1] = Stability of radioligand incubated in saline (radiolytic degradation); format: physicochemical
Description: The radiolabeling of PSMA-617 (Advanced Biochemical Compounds, ABX GmbH, Radeberg, Germany) with ^161Tb was performed under standard labeling conditions (Supplementary material). […] The n-octanol/PBS distribution coefficient (logD) was determined for ^161Tb-PSMA-617 (Supplementary material). All of these experiments were performed as previously reported for ^177Lu-PSMA-617 [27].

[2] = tested on: PSMA-positive PC-3 PIP tumor cells; experiment: Tumor cell uptake and internalization; format: cell-based, human; conditions: for Internalized fraction: PC-3 PIP
[3] = tested on: PSMA-negative PC-3 flu tumor cells; experiment: Tumor cell uptake and internalization; format: cell-based; conditions: 2–4 h incubation
[4] = tested on: PSMA-negative PC-3 flu tumor cells; experiment: Cell survival assay (clonogenic assay); format: cell-based; conditions: 1 MBq/mL and higher, p > 0.05
[5] = tested on: PC-3 PIP tumor-bearing mice; experiment: Therapy study - assessment of potential early side effects; format: in vivo; design: key to Histology: Bone marrow sternum / Histology: Sternum (bone) / Histology: Bone marrow femur / Histology: Femur and tibia (bone) / Histology: Salivary glands / Histology: Mandibular lymph node: NHAIR: no histological abnormality is recognized; IC: increased cellularity, myeloid lineage; SH: Sinus histiocytosis; LH: lymphoid hyperplasia; 1: minimal severity; 2: mild; 3: moderate; 4: marked; 5: severe; conditions: for ALB (blood plasma) / ALP (blood plasma) / BUN (blood plasma) / CRE (blood plasma) / TBIL (blood plasma): at euthanasia; for Brain mass / Kidney mass / Liver mass / Spleen Mass: day of euthanasia; for Histology: Bone marrow femur / Histology: Bone marrow sternum / Histology: Femur and tibia (bone) / Histology: Mandibular lymph node / Histology: Salivary glands / Histology: Sternum (bone): individual mice M1-M6
Description: Potential early side-effects related to the exposure to radiation were evaluated by the assessment of absolute and relative (to body and to brain) organ weights, selected clinical chemistry plasma parameters including creatinine (CRE), blood urea nitrogen (BUN), alkaline phosphatase (ALP), total bilirubin (TBIL), and albumin (ALB), as well as via histological analysis of bone marrow and salivary glands. The data were analyzed for statistical significance (Supplementary material).
Body and organ mass and mass ratios: As a measure to identify undesired side effects, body weights were compared at the day when the first control mouse had to be euthanized (Day 18; Table S3). The relative body weight (RBW) and the relative tumor volume (RTV) were calculated as stated in the main manuscript. Kidneys, liver, spleen and brain were collected and weighed at the day of euthanasia when an endpoint was reached or at the end of the study at Day 84 (Table S3). The organ mass-to-body mass and the organ-mass-to-brain-mass ratios were calculated for kidneys, liver and spleen (Table S4). The average organ masses of mice from each group were analyzed for significance using a one-way ANOVA test with a Tukey’s post correction (GraphPad Prism software, version 7). A p-value of <0.05 was considered as statistically significant.
Blood plasma parameters: Blood was taken from the retrobulbar vein immediately before euthanasia for determination of blood plasma parameters. The values of creatinine (CRE), blood urea nitrogen (BUN), alkaline phosphatase (ALP), total bilirubin (BIL) and albumin (ALB) were determined in the plasma after centrifugation of the blood using a dry chemistry analyzer (DRI-CHEM 4000i, FUJIFILM, Japan) (Table S5). The average blood plasma parameters of each group were analyzed for significance using a one-way ANOVA test with a Tukey’s post correction (GraphPad Prism software, version 7). A p-value of <0.05 was considered as statistically significant.
Necropsy, tissue processing and histological examination: After euthanasia and exsanguination, mice were dissected and, after a full macroscopic examination, sternum, femur and salivary glands were quickly removed and fixed in 4% neutral-buffered formalin (Formafix, Hittnau, Switzerland). After adequate fixation, femoral and sternal bones were decalcified in 10% ethylenediamine tetraacetic acid over a period of 5 days. Both bones and the salivary glands were subsequently trimmed, dehydrated through graded alcohols and routinely paraffin wax embedded. Sections (3–5 µm) were prepared, mounted on glass slides and routinely stained with hematoxylin and eosin (HE). Microscopic findings in the HE-stained livers were classified with standard pathological nomenclature and grading system.

[6] = tested on: PC-3 PIP/flu tumor-bearing mice; conditions: ~25 MBq
Description: In a separate study, SPECT/CT experiments were performed 12–14 days after tumor cell inoculation using a dedicated small-animal SPECT/CT camera (NanoSPECT/CT^TM, Mediso Medical Imaging Systems, Budapest, Hungary) as previously reported (Supplementary material) [34]. ^161Tb-PSMA-617 (~25 MBq/nmol) was diluted in saline for injection. Scans were acquired at 1 h, 4 h, and 24 h after injection of the radioligands (~25 MBq, 1 nmol, 100 μL). During the in-vivo scans, mice were anesthetized using a mixture of Isoflurane and oxygen.
Methods: Mice were inoculated with PC-3 PIP/flu tumor cells, as described for biodistribution studies, and injected with ^161Tb-PSMA-617 (~25 MBq, 1 nmol per mouse) about 12-14 days later. Under these conditions, the SPECT scans lasted for ~40 min. […] During the in-vivo scans, mice were anesthetized using a mixture of Isoflurane and oxygen.
SPECT/CT experiments were performed using a dedicated small-animal SPECT/CT camera (NanoSPECT/CT^TM, Mediso Medical Imaging Systems, Budapest, Hungary) as previously reported [4, 10]. The images were acquired using Nucline software (version 1.02, Mediso Ltd., Budapest, Hungary). The real-time CT reconstruction used a cone-beam-filtered backprojection. […] The lower scale of radioactivity was cut by 1% to make tumors and kidneys best visible.

[7] = tested on: PC-3 PIP tumor-bearing mice; conditions: for Median Survival: control 19 days
Description: Athymic nude BALB/c mice were obtained from Charles River Laboratories (Sulzfeld, Germany) at the age of 5–6 weeks. […] Therapy studies were performed with mice inoculated with PC-3 PIP cells (4 × 10^6 cells in HBSS with Ca^2+/Mg^2+) on the right shoulder (Supplementary material).
Three groups of mice (n = 6) were injected with only saline, ^161Tb-PSMA-617 (5.0 MBq; 1 nmol/mouse), or ^161Tb-PSMA-617 (10 MBq; 1 nmol/mouse) at Day 0 of the therapy, 6 days after PC-3 PIP tumor cell inoculation (Table 1). The mice were monitored by measuring body weights and the tumor sizes every other day over 12 weeks. Mice were euthanized when pre-defined endpoint criteria were reached, or when the study was terminated at Day 84 (Supplementary material). The relative body weight (RBW) was defined as [BWx/ BW0], where BWx is the body weight in gram at a given day x, and BW0 the body weight in grams at Day 0. The tumor dimension was determined by measuring the longest tumor axis (L) and its perpendicular axis (W) with a digital caliper. The tumor volume (V) was calculated according to the eq. [V = 0.5 * (L * W^2)]. The relative tumor volume (RTV) was defined as [TVx/TV0], where TVx is the tumor volume in mm^3 at a given day x, and TV0 the tumor volume in mm^3 at Day 0.
The efficacy of the radionuclide therapy was assessed by the tumor growth delay (TGDx), which was calculated as the time required for the tumor volume to increase x-fold over the initial volume at Day 0. The tumor growth delay index [TGDIx = TGDx(T)/TGDx(C)] was calculated as the TGDx ratio of treated mice (T) over control mice (C) for a 2-fold (x = 2, TGD2) and 5-fold (x = 5, TGD5) increase of the initial tumor volume. Statistical analysis was performed by a one-way ANOVA with Tukey’s multiple comparison post-test using GraphPad Prism software (version 7). A value of p < 0.05 was considered statistically significant. The median survival was calculated by Kaplan–Meier curves using GraphPad Prism software (version 7).
Methods: The therapy was started at Day 0 by injecting mice with the radioligands, 6 days after PC-3 PIP tumor cell inoculation (4×10^6 cells in HBSS with Ca^2+/Mg^2+) on the right shoulder.
Endpoint criteria: Mice were euthanized when a predefined endpoint criterion was reached or when the study was finalized at Day 84. Endpoint criteria were defined as (i) body weight loss of >15%, (ii) a tumor volume of >800 mm^3 (iii) a combination of body weight loss of >10% and a tumor volume of >700 mm^3 or (iv) signs of unease and pain or a combination thereof.

O=C([O-])CN1CCN(CC(=O)[O-])CCN(CC(=O)NCC2CCC(C(=O)NC(Cc3ccc4ccccc4c3)C(=O)NCCCCC(NC(=O)NC(CCC(=O)O)C(=O)O)C(=O)O)CC2)CCN(CC(=O)[O-])CC1.[161Tb+3] (stereo not shown) [^161Tb-PSMA-617]
Stability (intact radioligand) ([1]; 50 MBq/nmol, 250 MBq/500 μL, at least 1 h, without L-ascorbic acid): > 98% | Stability when incubated for longer time periods ([1]; 250 MBq/500 μL, longer than 1 h, without L-ascorbic acid): radiolytic degradation | Stability (intact radioligand) ([1]; in the presence of L-ascorbic acid, up to 24 h): ≥ 98% | PC-3 PIP tumor cell uptake ([2]; 2–4 h incubation): 47–54% | Uptake in PC-3 PIP tumor cells ([2]; 2 h incubation): 47% | Uptake in PC-3 PIP tumor cells ([2]; 4 h incubation): 54% | Internalized fraction ([2]; 2–4 h incubation): 8–11% | Internalized fraction ([2]; 2 h): 8% | Internalized fraction ([2]; 4 h): 11% | Uptake in PC-3 flu tumor cells [3]: < 0.5% | Effect on survival of PC-3 flu cells compared to ^177Lu-PSMA-617 [4]: tendency of a more pronounced effect | Body weight at Day 0 ([5]; 5.0 MBq): 17 ± 1.2 g | Body weight at Day 18 ([5]; 5.0 MBq): 17 ± 1.2 g | Body weight at Day of euthanasia ([5]; 5.0 MBq): 15 ± 1.7 g | Body weight over time ([5]; 5.0 MBq): body weight loss over time | Kidney-to-body ratio ([5]; 5.0 MBq): 0.014 ± 0.001 | Kidney-to-brain ratio ([5]; 5.0 MBq): 0.50 ± 0.11 | Liver-to-body ratios ([5]; 5.0 MBq): 0.048 ± 0.010 | Liver-to-brain ratios ([5]; 5.0 MBq): 1.8 ± 0.71 | Spleen-to-body ratios ([5]; 5.0 MBq): 0.004 ± 0.001 | Spleen-to-brain ratios ([5]; 5.0 MBq): 0.16 ± 0.05 | Undesired side-effects ([5]; 5.0 MBq and 10 MBq): no signs of undesired side-effects were detectable | ALB (blood plasma) ([5]; 5.0 MBq): 21 ± 1 g/L | ALP (blood plasma) ([5]; 5.0 MBq): 44 ± 1 U/L | BUN (blood plasma) ([5]; 5.0 MBq): 8.3 ± 0.50 mmol/L | CRE (blood plasma) ([5]; 5.0 MBq): <18 µmol/L | TBIL (blood plasma) ([5]; 5.0 MBq): 4 ± 1 µmol/L | Brain mass ([5]; 5.0 MBq): 371 ± 15 mg | Kidney mass ([5]; 5.0 MBq): 208 ± 19 mg | Liver mass ([5]; 5.0 MBq): 737 ± 143 mg | Spleen Mass ([5]; 5.0 MBq): 63 ± 13 mg | Histology: Bone marrow femur ([5]; 5 MBq): NHAIR | Histology: Bone marrow sternum ([5]; 5 MBq): NHAIR | Histology: Femur and tibia (bone) ([5]; 5 MBq): NHAIR | Histology: Mandibular lymph node ([5]; 5 MBq): NHAIR and SH 1 and LH 1 | Histology: Salivary glands ([5]; 5 MBq): NHAIR | Histology: Sternum (bone) ([5]; 5 MBq): NHAIR | Histological changes in the bone marrow and the salivary glands attributable to application ([5]; 5.0 and 10 MBq/mouse): no histological changes | Blood plasma parameters compared to control group ([5]; 5.0 and 10 MBq/mouse, p>0.05): did not show any significant differences | Body weight at Day 0 ([5]; 10 MBq): 18 ± 1.0*^3) g | Body weight at Day 18 ([5]; 10 MBq): 19 ± 1.2*^4) g | Body weight at Day of euthanasia ([5]; 10 MBq): 19 ± 1.6*^5) g | Body weight over time ([5]; 10 MBq): remained stable | Kidney-to-body ratio ([5]; 10 MBq): 0.014 ± 0.001 | Kidney-to-brain ratio ([5]; 10 MBq): 0.64 ± 0.09^*2) | Liver-to-body ratios ([5]; 10 MBq): 0.054 ± 0.002 | Liver-to-brain ratios ([5]; 10 MBq): 2.5 ± 0.87 | Spleen-to-body ratios ([5]; 10 MBq): 0.005 ± 0.001 | Spleen-to-brain ratios ([5]; 10 MBq): 0.23 ± 0.05^*3) | ALB (blood plasma) ([5]; 10 MBq): 19 ± 1 g/L | ALP (blood plasma) ([5]; 10 MBq): 54 ±15 U/L | BUN (blood plasma) ([5]; 10 MBq): 7.8 ± 1.3 mmol/L | CRE (blood plasma) ([5]; 10 MBq): <18 µmol/L | TBIL (blood plasma) ([5]; 10 MBq): 4 ± 1 µmol/L | Brain mass ([5]; 10 MBq): 402 ± 18 mg | Kidney mass ([5]; 10 MBq): 258 ± 41*^5) mg | Liver mass ([5]; 10 MBq): 994 ± 65*^5) mg | Spleen Mass ([5]; 10 MBq): 92 ± 22*^5) mg | Histology: Bone marrow femur ([5]; 10 MBq): NHAIR | Histology: Bone marrow sternum ([5]; 10 MBq): IC 1 and NHAIR | Histology: Femur and tibia (bone) ([5]; 10 MBq): NHAIR | Histology: Mandibular lymph node ([5]; 10 MBq): SH 2 LH 1 and SH 1 and LH 1 and NHAIR | Histology: Salivary glands ([5]; 10 MBq): NHAIR | Histology: Sternum (bone) ([5]; 10 MBq): NHAIR | Uptake in the PSMA-negative PC-3 flu tumor (SPECT/CT) ([6]; 1 h, 4 h and 24 h p.i.): negligible uptake | Renal excretion of activity (SPECT/CT) ([6]; after 4 h): almost entirely excreted | First mouse euthanized ([7]; 5.0 MBq/mouse): 30 days | Last mouse euthanized ([7]; 5.0 MBq/mouse): 66 days | TGDI2 ([7]; 5.0 MBq/mouse): 4.2 ± 1.2 | TGDI3 ([7]; 5.0 MBq/mouse): 2.5 ± 0.6 | Median Survival ([7]; 5.0 MBq/mouse): 36 days | First mouse euthanized ([7]; 10 MBq/mouse): 42 days | Mice still alive at the end of the study at Day 84 ([7]; 10 MBq/mouse, n = 6): two | Mice in which PC-3 PIP tumors disappeared entirely ([7]; 10 MBq/mouse, n = 6, over 12 weeks): two of the six; also recorded: two out of six | Median Survival ([7]; 10 MBq/mouse): 65 days | Last mouse euthanized ([7]; 10 MBq/mouse, study end at Day 84, 2 mice had not reached an endpoint): 84^1) Day
